According to patent US9150512B2, “Tricyclic lactam derivatives as 11-beta hydroxysteroid dehydrogenase inhibitors” (Janssen Pharmaceutica NV, priority 2004, dated 2015):

Assays:
11b-HSD1 = molecular target: T1, 11b-HSD1 (Mus musculus, UniProt P50172); assay: Cellular assay, 11b-HSD1 activity in differentiated 3T3-L1 cells; format: cell-based; conditions: 4 hour pre-incubation, pIC50 scored, read-out: [C2] HSD1 cellular 3T3-L1 Score
T1 construct: endogenous in cells; host or cells: 3T3-L1 (ATCC-CL-173), differentiated into adipocytes
Method: The effects on 11b-HSD1 activity was measured in differentiated 3T3-L1 cells and rat hepatocytes.
Mouse fibroblast 3T3-L1 cells (ATCC-CL-173) were seeded at a density of 16500 cells/ml in 12 well plates and grown for 7 days in DMEM medium (supplemented with 10% heat inactivated foetal calf serum, 2 mM glutamine and 25 mg gentamycin) at 37° C. in a humidified 5% CO2 atmosphere. Medium was refreshed twice a week. Fibroblasts were differentiated into adipocytes at 37° C. in a 5% CO2 humidified atmosphere in growth medium containing 2 μg/ml insulin, 55 μg/ml IBMX and 39.2 μg/ml dexamethasone.
Primary hepatocytes from male rats were seeded on normal Falcon 12 well plates at a density of 250000 cells/well and incubated for 16 hours at 37° C. in a 5% CO2 humidified atmosphere in DMEM-HAM's F12 medium containing 5% Nu-serum, 100 U/ml penicillin, 100 μg/ml streptomycin, 0.25 μg/ml amphotericin B, 50 μg/ml gentamycin sulfate, 5 μg/ml insulin and 392 ng/ml dexamethasone. Following a 4 hour pre-incubation with test compound, 0.5 μCi ^3H-cortisone or dehydrocorticosterone, was added to the 3T3-L1 cultures. One hour later, the medium was extracted on Extrelut^3-columns with 15 ml diethyl ether and the extract was analysed by HPLC as described above. The effects of JNJ-compounds on rat hepatocyte HSD1 activity was measured after an incubation period of 90 minutes with 0.5 μCi^3H-dehydrocorticosterone. Corticosterone formation was analysed by HPLC.
(§1) As for the enzymatic assays, the compounds to be tested were taken from a stock solution and tested at a final concentration ranging from −10^−5M to 3·10^−9M. From the thus obtained dose response curves, the pIC50 value was calculated and scored as follows; Score 1=pIC50 value<5, Score 2=pIC50 value in the range of 5 to 6, Score 3=pIC50 value>6. (in this table NT stands for Not Tested).

hHSD1 = hHSD1 (Homo sapiens, UniProt P28845); assay: Enzymatic assay, 11b-HSD1 reductase activity (conversion of cortisone into cortisol), recombinant protein; format: biochemical; conditions: 2 μM cortisone, 180 μM NADPH, pH 7.2, pIC50 scored, read-out: [C1] hHSD1 reductase Score
Method: The effects of compounds on 11b-HSD1 dependent conversion of cortisone into cortisol (reductase activity) was studied in a reaction mixture containing 30 mM Tris-HCl buffer pH 7.2, 180 μM NADPH, 1 mM EDTA, 2 μM cortisone, 1 μl drug and/or solvent and 11 μg recombinant protein in a final volume of 100 μl.
All incubations were performed for 45 min at 37 C in a water bath. The reaction was stopped by adding 100 μl acetonitrile containing 20 μg corticosterone as internal standard. After centrifugation, the product formation was analysed in the supernatant by HPLC on a Hypersyl BDS-C18 column using 0.05 mM ammonium acetate/methanol (50/50) as solvent. In all of the aforementioned assays, the drugs to be tested were taken from a stock solution and tested at a final concentration ranging from −10^−5M to 3·10^−9M. From the thus obtained dose response curves, the pIC50 value was calculated and scored as follows; Score 1=pIC50 value<5, Score 2=pIC50 value in the range of 5 to 6, Score 3=pIC50 value>6. (in this table NT stands for Not Tested).

11b-HSD2 = molecular target: T2, 11b-HSD2 (Homo sapiens, UniProt P80365); assay: Cellular assay, 11b-HSD2 activity in HepG2 cells; format: cell-based; conditions: 4 hour pre-incubation, pIC50 scored, read-out: [C2] HSD2 cellular HepG2 Score
T2 construct: endogenous in cells; host or cells: HepG2 (ATCC HB-8065)
T2 sequence (P80365 1-405): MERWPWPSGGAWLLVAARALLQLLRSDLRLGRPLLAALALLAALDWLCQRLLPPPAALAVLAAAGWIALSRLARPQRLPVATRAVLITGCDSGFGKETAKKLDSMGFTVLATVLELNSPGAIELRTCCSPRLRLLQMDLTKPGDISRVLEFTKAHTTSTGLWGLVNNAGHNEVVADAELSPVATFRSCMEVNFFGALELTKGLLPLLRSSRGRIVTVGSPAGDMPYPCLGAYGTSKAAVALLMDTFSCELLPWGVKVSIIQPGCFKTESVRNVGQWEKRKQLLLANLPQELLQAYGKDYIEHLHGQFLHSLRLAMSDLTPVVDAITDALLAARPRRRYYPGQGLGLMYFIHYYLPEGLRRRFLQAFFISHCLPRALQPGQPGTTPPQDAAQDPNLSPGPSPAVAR
Method: The effects on 11b-HSD2 activity was studied in HepG2 and LCC-PK1-cells HepG2-cells (ATCC HB-8065) were seeded in 12 well plates at a density of 100,000 cells/ml and grown at 37° C. in a humidified 5% CO2 atmosphere in MEM-Rega-3 medium supplemented with 10% heat inactivated foetal calf serum, 2 mM L-glutamine and sodium bicarbonate). Medium was refreshed twice a week.
Following a 4 hour pre-incubation with test compound, 0.5 μCi ^3H-cortisol or corticosterone, was added to the cultures. One hour later, the medium was extracted on Extrelut^3-columns with 15 ml diethyl ether and the extract was analysed by HPLC as described above.
as §1

Chain of hHSD1 (P28845 whole entry): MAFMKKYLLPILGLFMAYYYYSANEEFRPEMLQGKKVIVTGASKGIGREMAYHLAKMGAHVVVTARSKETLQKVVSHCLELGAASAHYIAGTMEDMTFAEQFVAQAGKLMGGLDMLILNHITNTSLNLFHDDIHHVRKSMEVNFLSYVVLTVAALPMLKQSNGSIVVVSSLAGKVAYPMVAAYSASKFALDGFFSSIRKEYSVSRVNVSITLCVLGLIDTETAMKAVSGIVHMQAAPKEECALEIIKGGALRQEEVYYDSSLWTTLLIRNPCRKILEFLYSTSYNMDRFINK
T1 sequence (P50172 whole entry): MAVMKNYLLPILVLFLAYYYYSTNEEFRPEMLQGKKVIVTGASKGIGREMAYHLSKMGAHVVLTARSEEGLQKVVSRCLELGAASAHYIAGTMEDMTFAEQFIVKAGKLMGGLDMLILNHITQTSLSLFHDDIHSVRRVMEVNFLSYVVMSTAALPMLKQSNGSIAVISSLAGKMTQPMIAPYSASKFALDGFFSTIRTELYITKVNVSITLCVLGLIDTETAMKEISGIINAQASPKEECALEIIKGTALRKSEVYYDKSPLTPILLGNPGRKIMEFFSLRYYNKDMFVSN

| SMILES | IC50 (11b-HSD1) [nM] | IC50 (hHSD1) [nM] | IC50 (11b-HSD2) [nM] | melting point [°C] |
| --- | --- | --- | --- | --- |
| O=C1[C@@H]2Cc3ccccc3CN2CN1C1C2CC3CC(C2)CC1C3 (some centres unmarked) [Compound 12] | 1000 to 10000 | – | – | – |
| O=C1[C@H]2CCc3ccccc3[C@@H]2CN1CC12CC3CC(CC(C3)C1)C2 [Compound 15] | < 1000 | < 1000 | 1000 to 10000 | – |
| O=C1N2CCc3c(Br)cccc3C2CN1C1C2CC3CC(C2)CC1C3 (centres unmarked) [Compound 23] | < 1000 | < 1000 | < 1000 | – |
| O=C1[C@@H]2CCc3ccccc3[C@H]2CN1[C@H]1[C@@H]2CC3C[C@H]1C[C@](F)(C3)C2 [Compound 32] | < 1000 | < 1000 | < 1000 | – |
| O=C1[C@@H]2Cc3ccccc3C[C@@H]2CN1[C@@H]1[C@@H]2CC3C[C@H]1C[C@](O)(C3)C2 [Compound 26] | 1000 to 10000 | 1000 to 10000 | > 10000 | – |
| O=C1N(C2C3CC4CC(C3)CC2C4)C[C@H]2Cc3ccccc3CN12 (some centres unmarked) [Compound 5] | < 1000 | 1000 to 10000 | 1000 to 10000 | – |
| O=C1C2Cc3ccccc3CC2CN1C1C2CC3CC(C2)CC1C3 (centres unmarked) [Compound 2] | < 1000 | < 1000 | 1000 to 10000 | – |
| COc1ccc2c(c1)CC1C(=O)N(C3C4CC5CC(C4)CC3C5)CC1C2 (centres unmarked) [Compound 10] | < 1000 | < 1000 | > 10000 | – |
| O=C1N(C2C3CC4CC(C3)CC2C4)CC2CCc3ccccc3N12 (centres unmarked) [Compound 13] | > 10000 | > 10000 | > 10000 | – |
| O=C1N2CCc3ccc(Br)cc3C2CN1C1C2CC3CC(C2)CC1C3 (centres unmarked) [Compound 7] | < 1000 | < 1000 | – | – |
| O=C1[C@@H]2CCc3ccccc3[C@@H]2CN1Cc1ccccc1 [Compound 20] | < 1000 | 1000 to 10000 | – | – |
| O=C1[C@@H]2CCc3ccccc3[C@@H]2CN1[C@H]1[C@@H]2CC3C[C@H]1C[C@](O)(C3)C2 [Compound 33] | < 1000 | < 1000 | < 1000 | – |
| O=C1[C@H]2CCc3ccccc3[C@@H]2CN1C12CC3CC(CC(C3)C1)C2 [Compound 17] | < 1000 | < 1000 | < 1000 | – |
| O=C1N(C2C3CC4CC(C3)CC2C4)C[C@@H]2Cc3ccccc3CN12 (some centres unmarked) [Compound 11] | < 1000 | – | – | – |
| O=C1[C@H]2Cc3ccsc3C[C@@H]2CN1C1C2CC3CC(C2)CC1C3 (some centres unmarked) [Compound 18] | < 1000 | < 1000 | 1000 to 10000 | – |
| O=C1N2CCc3ccccc3C2CN1[C@@H]1[C@@H]2CC3C[C@H]1C[C@](O)(C3)C2 (some centres unmarked) [Compound 25] | < 1000 | 1000 to 10000 | – | 210 to 212 |
| O=C1N2CCc3ccccc3C2CN1[C@H]1[C@@H]2CC3C[C@H]1C[C@](O)(C3)C2 (some centres unmarked) [Compound 24] | < 1000 | < 1000 | < 1000 | 235 to 237 |
| O=C1C2=Cc3cccnc3CC2CN1C1C2CC3CC(C2)CC1C3 (centres unmarked) [Compound 21] | < 1000 | > 10000 | – | – |
| O=C1[C@@H]2c3ccccc3CC[C@@H]2CN1C1C2CC3CC(C2)CC1C3 (some centres unmarked) [Compound 1] | 1000 to 10000 | 1000 to 10000 | – | – |
| O=C1[C@@H]2CCc3ccccc3[C@@H]2CN1C1C2CC3CC(C2)CC1C3 (some centres unmarked) [Compound 8] | < 1000 | 1000 to 10000 | 1000 to 10000 | – |

Now from value to compound:

| IC50 (11b-HSD1) [nM] | IC50 (hHSD1) [nM] | IC50 (11b-HSD2) [nM] | melting point [°C] | SMILES |
| --- | --- | --- | --- | --- |
| < 1000 | < 1000 | < 1000 | – | O=C1[C@@H]2CCc3ccccc3[C@H]2CN1[C@H]1[C@@H]2CC3C[C@H]1C[C@](O)(C3)C2 [Compound 31] |
| < 1000 | < 1000 | < 1000 | – | O=C1[C@H]2CCc3ccccc3[C@@H]2CN1C1C2CC3CC(C2)CC1C3 (some centres unmarked) [Compound 3] |
| < 1000 | < 1000 | 1000 to 10000 | – | O=C1N(CC23CC4CC(CC(C4)C2)C3)CC2c3ccccc3CCN12 (centres unmarked) [Compound 14] |
| > 10000 | > 10000 | > 10000 | – | O=C1[C@H]2Cc3cnccc3C[C@H]2CN1[C@@H]1[C@@H]2CC3C[C@H]1C[C@](O)(C3)C2 [Compound 29] |
| < 1000 | < 1000 | < 1000 | – | O=C1N2CCc3ccccc3C2CN1C1C2CC3CC(C2)CC1C3 (centres unmarked) [Compound 6] |
| 1000 to 10000 | 1000 to 10000 | – | – | O=C1[C@H]2Cc3cnccc3C[C@H]2CN1[C@H]1[C@@H]2CC3C[C@H]1C[C@](O)(C3)C2 [Compound 34] |
| < 1000 | 1000 to 10000 | – | – | O=C1C2=Cc3cnccc3CC2CN1C1C2CC3CC(C2)CC1C3 (centres unmarked) [Compound 22] |
| 1000 to 10000 | > 10000 | > 10000 | – | O=C1C2=Cc3cnccc3CC2CN1[C@H]1[C@@H]2CC3C[C@H]1C[C@](O)(C3)C2 (some centres unmarked) [Compound 30] |
| < 1000 | > 10000 | > 10000 | – | O=C1[C@H]2Cc3ccccc3CN2CN1C1C2CC3CC(C2)CC1C3 (some centres unmarked) [Compound 4] |
| < 1000 | > 10000 | – | – | O=C1[C@@H]2CCc3ccccc3[C@H]2CN1Cc1ccccc1 [Compound 19] |
| < 1000 | < 1000 | 1000 to 10000 | – | O=C1[C@@H]2CCc3ccccc3[C@@H]2CN1CC12CC3CC(CC(C3)C1)C2 [Compound 16] |
| > 10000 | > 10000 | > 10000 | – | O=C1[C@@H]2Cc3cccnc3C[C@@H]2CN1[C@@H]1[C@@H]2CC3C[C@H]1C[C@](O)(C3)C2 [Compound 28] |
| < 1000 | < 1000 | 1000 to 10000 | – | O=C1[C@H]2Cc3ccccc3C[C@H]2CN1[C@H]1[C@@H]2CC3C[C@H]1C[C@](O)(C3)C2 [Compound 27] |
| < 1000 | 1000 to 10000 | 1000 to 10000 | – | COc1cccc2c1CC1CN(C3C4CC5CC(C4)CC3C5)C(=O)C1C2 (centres unmarked) [Compound 9] |
